What was measured:
SGC-7901 = test: MTT cell viability assay, SGC-7901; assay type: cell-based; conditions: Homo sapiens, 24 h incubation, mean ± SD, n = 4
Experimental: (§1) The synthesized compounds were subjected to a cytotoxicity assay using the MTT method, as described previously. IC50 is defined as the drug concentration causing a 50% reduction in cell numbers compared to the untreated control. For screening, we evaluated the effects of the compounds on the growth of three cancer cell lines (A549, SGC-7901, and HeLa). In addition, their toxicities were tested using one normal cell line (L-02). The results are the averages of four separate measurements. MTX and 5-FU served as positive controls.
(§2) The three cancer cell lines namely the human lung cancer cell line (A549), human cervical cancer cell line (HeLa), human gastric carcinoma cell line (SGC-7901), and normal liver cell line (L-02) were acquired from the American Type Culture Collection (Manassas, VA, USA). A549 and SGC-7901 cells were routinely cultured in RPMI-1640. In addition, HeLa and L-02 cells were routinely cultured in DMEM. Media was supplemented with 10% fetal bovine serum (FBS). Cells were maintained at subconfluency at 37 °C in humidified air containing 5% CO2. The cells were monitored daily and maintained at 80% cell density. All compounds tested were dissolved in DMSO and then diluted by the culture medium before the treatment of cultured cells.
(§3) Cytotoxicity of the tested samples was measured against each cell line using the 3-(4,5-dimethylthiazol-2-yl)-2,5-diphenyltetrazolium bromide (MTT) cell viability assay (Maher et al., 2019). Cancer cells (A549, SGC-7901, and HeLa) and L-02 normal cells were harvested during the logarithmic growth phase. All cells were seeded in 96-well plates at 10^4 cells/well and were treated with 5-fluorouracil (5-FU), methotrexate (MTX), and the tested samples for 24 h at final concentrations of […]. Next, 20 µL of freshly prepared MTT (Solarbio) solution (5 mg/mL of MTT in PBS) was added to each well, and the cells were cultured for 4 h at 37 °C. The supernatants were removed and resolved with 100 µL of DMSO, and the cells were shocked for 10 min at 37 °C. The optical density of the samples was measured at 490 nm using a microplate luminometer. Cell viability was expressed as the percentage change in absorbance compared to the control values.

HeLa = test: MTT cell viability assay, HeLa; assay type: cell-based; conditions: Homo sapiens, 24 h incubation, mean ± SD, n = 4
Experimental: as §1, §2, §3

A549 = test: MTT cell viability assay, A549; assay type: cell-based; conditions: Homo sapiens, 24 h incubation, mean ± SD, n = 4
Experimental: as §1, §2, §3

L-02 = test: MTT cytotoxicity in normal cell line L-02; assay type: cell-based; conditions: for IC50: Homo sapiens, L02, normal cell line L-02, MTT; for Selectivity Index A549: IC50 in normal cells (L-02)/IC50 in tumor cells (A549); for Selectivity Index HeLa: IC50 in normal cells (L-02)/IC50 in tumor cells (HeLa); for Selectivity Index SGC-7901: IC50 in normal cells (L-02)/IC50 in tumor cells (SGC-7901)
Experimental: as §1
The lack of selectivity between normal and cancer cells is one of the primary limitations of antitumor drugs. We evaluated the cytotoxicity of compounds 4c, 4e–4i, 4l, 4m, and 4q in the normal cell line L-02 to determine the selectivity index (defined as the ratio of cytotoxicity in L-02 cells compared to that in cancer cells). […] Compound 4q yielded satisfactory SI values in HeLa and SGC-7901 cells but an unsatisfactory SI value in A549 cells. […] Compound 4f was selected for the subsequent biological studies.
as §2, §3

| SMILES | IC50 (SGC-7901) [µM] | IC50 (HeLa) [µM] | melting point [°C] | IC50 (A549) [µM] | IC50 (L-02) [µM] | Selectivity Index A549 (L-02) | Selectivity Index HeLa (L-02) | Selectivity Index SGC-7901 (L-02) |
| --- | --- | --- | --- | --- | --- | --- | --- | --- |
| CCc1nccn1-c1ccc(NC(=O)CCC(=O)O)cc1 [Compound 3, 3-(4-(2-Ethyl-1H-imidazol-1-yl)phenylcarbamoyl)propanoic Acid] | > 100 | > 100 | 163 to 165 | > 100 | – | – | – | – |
| CCCNC(=O)CCC(=O)Nc1ccc(-n2ccnc2CC)cc1 [Compound 4a, 1-(4-(3-(Propylcarbamoyl)propionamide)phenyl)-2-ethyl Imidazole] | > 100 | > 100 | 128 to 130 | > 100 | – | – | – | – |
| CCCCNC(=O)CCC(=O)Nc1ccc(-n2ccnc2CC)cc1 [Compound 4b, 1-(4-(3-(Butylcarbamoyl)propionamide)phenyl)-2-ethyl Imidazol] | 52.5 ± 3.36 | > 100 | 112 to 115 | > 100 | – | – | – | – |
| CCCCCNC(=O)CCC(=O)Nc1ccc(-n2ccnc2CC)cc1 [Compound 4c, 1-(4-(3-(Amylcarbamoyl)propionamide)phenyl)-2-ethyl Imidazole] | 18.5 ± 2.12 | 28.5 ± 2.51 | 95 to 98 | 33.9 ± 2.43 | 114 ± 8.35 | 3.35 | 3.99 | 6.13 |
| CCc1nccn1-c1ccc(NC(=O)CCC(=O)Nc2ccccc2)cc1 [Compound 4d, 1-(4-(3-(Phenylcarbamoyl)propionamide)phenyl)-2-ethylimidazole] | > 100 | > 100 | 170 to 173 | 86.5 ± 10.6 | – | – | – | – |
| CCc1nccn1-c1ccc(NC(=O)CCC(=O)Nc2ccc(Cl)cc2)cc1 [Compound 4e, 1-(4-(3-(4-Cl-Phenylcarbamoyl)propionamide)phenyl)-2-ethyl Imidazol] | 10.6 ± 1.75 | 13.3 ± 1.37 | 184 to 188 | 43.4 ± 5.42 | 313 ± 18 | 7.22 | 23.58 | 29.48 |
| CCc1nccn1-c1ccc(NC(=O)CCC(=O)Nc2ccc(F)cc2)cc1 [Compound 4g, 1-(4-(3-(4-F-Phenylcarbamoyl)propionamide)phenyl)-2-ethyl Imidazol] | 14 ± 2.29 | 16.5 ± 1.48 | 75 to 78 | 13.8 ± 1.92 | 42.6 ± 6.37 | 3.10 | 2.58 | 3.04 |
| CCc1nccn1-c1ccc(NC(=O)CCC(=O)Nc2ccc(C)cc2)cc1 [Compound 4h] | 13.1 ± 3.02 | 6.31 ± 0.79 | 200 to 202 | 32.2 ± 4.79 | 290 ± 26.6 | 9.00 | 45.94 | 22.10 |
| CCc1nccn1-c1ccc(NC(=O)CCC(=O)Nc2ccc(OC)cc2)cc1 [Compound 4i, 1-(4-(3-(4-Methoxybenzecarbamoyl)propionamide)phenyl)-2-ethyl Imidazole] | 15.5 ± 2.84 | 7.01 ± 1.3 | 160 to 163 | 23.8 ± 7.16 | 210 ± 25.5 | 8.81 | 29.89 | 13.55 |
| CCc1nccn1-c1ccc(NC(=O)CCC(=O)Nc2ccc(N)cc2)cc1 [Compound 4j, 1-(4-(3-(4-amino-Phenylcarbamoyl)propionamide)phenyl)-2-ethylimidazole] | > 100 | 7.42 ± 0.67 | 229 to 231 | > 100 | – | – | – | – |
| CCc1nccn1-c1ccc(NC(=O)CCC(=O)NCc2ccccc2)cc1 [Compound 4k, 1-(4-(3-(Benzylcarbamoyl)propionamide)phenyl)-2-ethyl Imidazol] | 20.6 ± 2 | 15.2 ± 1.4 | 123 to 126 | > 100 | – | – | – | – |
| CCc1nccn1-c1ccc(NC(=O)CCC(=O)NCc2ccc(Cl)cc2)cc1 [Compound 4l, 1-(4-(3-(4-Cl-Benzylcarbamoyl)propionamide)phenyl)-2-ethyl Imidazol] | 8.39 ± 1.11 | 7.04 ± 1.07 | 138 to 142 | 11 ± 1.31 | 114 ± 16.7 | 10.36 | 16.13 | 13.53 |
| CCc1nccn1-c1ccc(NC(=O)CCC(=O)NCc2ccc(Br)cc2)cc1 [Compound 4m, 1-(4-(3-(4-Br-Benzylcarbamoyl)propionamide)phenyl)-2-ethylimidazole] | 15.2 ± 1.74 | 4.07 ± 0.59 | 143 to 145 | 28.6 ± 2.51 | 210 ± 20.3 | 7.35 | 51.59 | 13.85 |
| CCc1nccn1-c1ccc(NC(=O)CCC(=O)NCc2ccc(F)cc2)cc1 [Compound 4n, 1-(4-(3-(4-F-Benzylcarbamoyl)propionamide)phenyl)-2-ethylimidazole] | > 100 | 9.36 ± 1.78 | 137 to 140 | > 100 | – | – | – | – |
| CCc1nccn1-c1ccc(NC(=O)CCC(=O)NCc2ccc(C)cc2)cc1 [Compound 4o, 1-(4-(3-(4-Methylbenzylcarbamoyl)propionamide)phenyl)-2-ethylimidazole] | 11.6 ± 1.59 | 12.5 ± 0.91 | 164 to 166 | 71.3 ± 9.13 | – | – | – | – |
| CCc1nccn1-c1ccc(NC(=O)CCC(=O)NCc2ccc(OC)cc2)cc1 [Compound 4p, 1-(4-(3-(4-Methoxybenzylcarbamoyl)propanamide)phenyl)-2-ethylimidazole] | 40.3 ± 4.67 | 25.5 ± 4.94 | 168 to 171 | 75.9 ± 4 | – | – | – | – |
| CCc1nccn1-c1ccc(NC(=O)CCC(=O)NCc2ccccn2)cc1 [Compound 4r, 1-(4-(3-(Pyridinemethylcarbamoyl)propionamide)phenyl)-2-ethyl Imidazole] | 41.9 ± 3.47 | > 100 | 118 to 121 | > 100 | – | – | – | – |
| CCc1nccn1-c1ccc(NC(=O)CCC(=O)Nc2nccs2)cc1 [Compound 4s, 1-(4-(3-(Thiazolcarbamoyl)propionamide)phenyl)-2-ethyl Imidazole] | 56.3 ± 3.24 | 14.8 ± 2.05 | 168 to 170 | 24 ± 3.47 | – | – | – | – |
| CN(Cc1cnc2nc(N)nc(N)c2n1)c1ccc(C(=O)N[C@@H](CCC(=O)O)C(=O)O)cc1 [MTX, methotrexate, reference compound] | 13.7 ± 1.29 | 15 ± 2.47 | – | 16 ± 3.2 | 42.9 ± 8.07 | 2.68 | 2.85 | 3.14 |
